Data taken from US11702422B2, “Imidazopyridazines as modulators of IL-17” (Janssen Pharmaceutica NV, priority 2020, dated 2023).

Columns and labels:
[1] = biological target: IL-17A(FLAG-Tagged): IL-17RA(His-Tagged) (Homo sapiens, UniProt Q16552, K93Q); experiment: IL-17A(FLAG-Tagged): IL-17RA(His-Tagged) Binding Disruption Eu-HTRF Assay; conditions: IL-17A/IL-17RA binding disruption, simple average if tested more than once
Summary of the method: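 IC50 comes from a one-site competition fit of the HTRF 665/620 nm ratio. Compound dilutions (2-fold, 22 points) were held 1 h rt with FLAG-tagged IL-17A dimer, then His-tagged IL-17RA plus Eu-cryptate anti-FLAG and D2 anti-His antibodies were added for 2 h rt.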

[2] = system: IL-17A-induced G-CSF production in human normal keratinocyte (NHK); experiment: NHK Assay: IL-17A-induced G-CSF production in human normal keratinocytes; type: cell-based; conditions: 24 h, adult normal human keratinocytes, IL-17A 5 ng/mL, simple average if tested more than once
Summary of the method: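 Compound is first combined with recombinant human IL-17A for 1 h at rt, and the mix is added to adult normal human keratinocytes so that IL-17A is 5 ng/mL. After 24 h at 37° C in 5% FBS, G-CSF released into the medium is read by HTRF and IC50 derived.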

UniProt Q16552, sequence (Q16552 with tags, fused parts or gaps K93Q): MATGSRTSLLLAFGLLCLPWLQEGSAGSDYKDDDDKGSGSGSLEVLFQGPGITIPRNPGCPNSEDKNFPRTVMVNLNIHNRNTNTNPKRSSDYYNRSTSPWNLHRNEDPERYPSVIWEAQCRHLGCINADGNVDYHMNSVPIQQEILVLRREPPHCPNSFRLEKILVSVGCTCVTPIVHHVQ

IC50 [1] [nM] | Structure (SMILES) | IC50 ([2]; Homo sapiens, Keratinocyte) [nM] | IC50 [2] [nM]
130 | O=C(CCC(F)(F)F)N[C@@H](c1cnn2cc([C@@H](NC(=O)c3ccnn3C3CC3)C3CCC(F)(F)CC3)nc2c1)C1CC1 [Example 240, 1-Cyclopropyl-N—((S)-(7-((R)-cyclopropyl(4,4,4-trifluorobutanamido)methyl)imidazo[1,2-b]pyridazin-2-yl)(4,4-difluorocyclohexyl)methyl)-1H-pyrazole-5-carboxamide] | 210 | –
150 | CC(C)n1nccc1C(=O)N[C@H](c1cn2ncc([C@H](NC(=O)COC(F)(F)F)C3CC3)cc2n1)C1CCC(F)(F)CC1 [Example 276, N—((S)-(7-((R)-Cyclopropyl(2-(trifluoromethoxy)acetamido)methyl)imidazo[1,2-b]pyridazin-2-yl)(4,4-difluorocyclohexyl)methyl)-1-isopropyl-1H-pyrazole-5-carboxamide] | 140 | –
130 | O=C(CC1CC(F)(F)C1)N[C@@H](c1cnn2cc([C@@H](NC(=O)[C@H]3C[C@@H]3C(F)(F)F)C3CCC(F)(F)CC3)nc2c1)C1CC1 (relative stereo) [Example 143, (Trans-1S*,2S*)—N—((S)-(7-((R)-Cyclopropyl(2-(3,3-difluorocyclobutyl)acetamido)methyl)imidazo[1,2-b]pyridazin-2-yl)(4,4-difluorocyclohexyl)methyl)-2-(trifluoromethyl)cyclopropane-1-carboxamide] | 450 | –
260 | CC(C)n1nccc1C(=O)N[C@H](c1cn2ncc(C(NC(=O)CC3CC(F)(F)C3)C(F)(F)F)cc2n1)C1CCC(F)(F)CC1 (single isomer, unassigned) [Example 422, N—((S)-(7-((S*)-1-(2-(3,3-Difluorocyclobutyl)acetamido)-2,2,2-trifluoroethyl)imidazo[1,2-b]pyridazin-2-yl)(4,4-difluorocyclohexyl)methyl)-1-isopropyl-1H-pyrazole-5-carboxamide] | 82 | –
250 | CC(C)n1cncc1C(=O)N[C@H](c1cn2ncc([C@H](NC(=O)CCC(F)(F)F)C3CC3)cc2n1)C1CCC(F)(F)CC1 [Example 85, N—((S)-(7-((R)-Cyclopropyl(4,4,4-trifluorobutanamido)methyl)imidazo[1,2-b]pyridazin-2-yl)(4,4-difluorocyclohexyl)methyl)-1-isopropyl-1H-imidazole-5-carboxamide] | 340 | –
130 | CC(C)n1nccc1C(=O)N[C@@H](COC(C)(C)C(F)(F)F)c1cn2ncc([C@H](NC(=O)CC3CC(F)(F)C3)C3CCOCC3)cc2n1 [Example 541, N—((R)-1-(7-((R)-(2-(3,3-Difluorocyclobutyl)acetamido)(tetrahydro-2H-pyran-4-yl)methyl)imidazo[1,2-b]pyridazin-2-yl)-2-((1,1,1-trifluoro-2-methylpropan-2-yl)oxy)ethyl)-1-isopropyl-1H-pyrazole-5-carboxamide] | 29 | –
1700 | N#CC12CC(Cn3cc(C(=O)N[C@H](c4cn5ncc([C@H](NC(=O)CCC(F)(F)F)C6CC6)cc5n4)C4CCC(F)(F)CC4)nn3)(C1)C2 [Example 147, 1-((3-Cyanobicyclo[1.1.1]pentan-1-yl)methyl)-N—((S)-(7-((R)-cyclopropyl(4,4,4-trifluorobutanamido)methyl)imidazo[1,2-b]pyridazin-2-yl)(4,4-difluorocyclohexyl)methyl)-1H-1,2,3-triazole-4-carboxamide] | > 20000 | –
83 | Cc1nonc1C(=O)N[C@H](c1cn2ncc(C(C)NC(=O)CCC(F)(F)F)cc2n1)C1CCC(F)(F)CC1 (single isomer, unassigned) [Example 510, N—((S)-(4,4-Difluorocyclohexyl)(7-((S*)-1-(4,4,4-trifluorobutanamido)ethyl)imidazo[1,2-b]pyridazin-2-yl)methyl)-4-methyl-1,2,5-oxadiazole-3-carboxamide] | – | 440
1200 | [2H]C([2H])([2H])C([2H])([2H])n1nccc1C(=O)N[C@H](c1cn2ncc([C@H](CC)NC(=O)CC3CC(F)(F)C3)cc2n1)C1CCC(F)(F)CC1 (relative stereo) [Example 508, N—((S)-(7-((S*)-1-(2-(3,3-Difluorocyclobutyl)acetamido)propyl)imidazo[1,2-b]pyridazin-2-yl)(4,4-difluorocyclohexyl)methy)-1-(ethyl-d5)-1H-pyrazole-5-carboxamide] | 10000 | –
52 | O=C(CCC(F)(F)F)N[C@@H](c1cnn2cc([C@@H](NC(=O)c3cc(F)cc(OC(F)F)c3)C3CCC(F)(F)CC3)nc2c1)C1CC1 [Example 165, N—((S)-(7-((R)-Cyclopropyl(4,4,4-trifluorobutanamido)methyl)imidazo[1,2-b]pyridazin-2-yl)(4,4-difluorocyclohexyl)methyl)-3-(difluoromethoxy)-5-fluorobenzamide] | 130 | –
54 | CCc1cnoc1C(=O)N[C@H](c1cn2ncc([C@H](NC(=O)CCC(F)(F)F)C3CC3)cc2n1)C1CCC(F)(F)CC1 [Example 470, N—((S)-(7-((R)-Cyclopropyl(4,4,4-trifluorobutanamido)methyl)imidazo[1,2-b]pyridazin-2-yl)(4,4-difluorocyclohexyl)methyl)-4-ethylisoxazole-5-carboxamide] | 110 | –
5600 | Cc1noc(C(C)C)c1C(=O)N[C@H](c1cn2ncc([C@H](NC(=O)CCC(F)(F)F)C3CC3)cc2n1)C1CCC(F)(F)CC1 [Example 81, N—((S)-(7-((R)-Cyclopropyl(4,4,4-trifluorobutanamido)methyl)imidazo[1,2-b]pyridazin-2-yl)(4,4-difluorocyclohexyl)methyl)-5-isopropyl-3-methylisoxazole-4-carboxamide] | > 20000 | –
310 | CC(C)n1nccc1C(=O)N[C@H](c1cn2ncc(C(CC#N)NC(=O)CC3CC(F)(F)C3)cc2n1)C1CCC(F)(F)CC1 (single isomer, unassigned) [Example 399, N—((S)-(7-((S*)-2-Cyano-1-(2-(3,3-difluorocyclobutyl)acetamido)ethyl)imidazo[1,2-b]pyridazin-2-yl)(4,4-difluorocyclohexyl)methyl)-1-isopropyl-1H-pyrazole-5-carboxamide] | – | 94
230 | COc1cncc(C(=O)N[C@H](c2cn3ncc([C@H](NC(=O)CCC(F)(F)F)C4CC4)cc3n2)C2CCC(F)(F)CC2)c1 [Example 189, N—((S)-(7-((R)-Cyclopropyl(4,4,4-trifluorobutanamido)methyl)imidazo[1,2-b]pyridazin-2-yl)(4,4-difluorocyclohexyl)methyl)-5-methoxynicotinamide] | 810 | –
67 | CC(C)c1nocc1C(=O)N[C@H](c1cn2ncc([C@H](NC(=O)CCC(F)(F)F)C3CC3)cc2n1)C1CCC(F)(F)CC1 [Example 76, N—((S)-(7-((R)-Cyclopropyl(4,4,4-trifluorobutanamido)methyl)imidazo[1,2-b]pyridazin-2-yl)(4,4-difluorocyclohexyl)methyl)-3-isopropylisoxazole-4-carboxamide] | 67 | –
14000 | CC(C)n1nccc1C(=O)N[C@H](c1cn2ncc(C(NC(=O)CC(C)(C)O)C3CC3)cc2n1)C1CCC(F)(F)CC1 (single isomer, unassigned) [Example 137, N—((S)-(7-((S*)-Cyclopropyl(3-hydroxy-3-methylbutanamido)methyl)imidazo[1,2-b]pyridazin-2-yl)(4,4-difluorocyclohexyl)methyl)-1-isopropyl-1H-pyrazole-5-carboxamide] | – | > 20000
150 | CCc1ccnc(C(=O)N[C@H](c2cn3ncc([C@H](NC(=O)CCC(F)(F)F)C4CC4)cc3n2)C2CCC(F)(F)CC2)c1 [Example 453, N—((S)-(7-((R)-Cyclopropyl(4,4,4-trifluorobutanamido)methyl)imidazo[1,2-b]pyridazin-2-yl)(4,4-difluorocyclohexyl)methyl)-4-ethylpicolinamide] | 3900 | –
230 | O=C(CCC(F)(F)F)N[C@@H](c1cnn2cc([C@@H](NC(=O)c3cnn(CCOC(F)F)c3)C3CCC(F)(F)CC3)nc2c1)C1CC1 [Example 37, N—((S)-(7-((R)-Cyclopropyl(4,4,4-trifluorobutanamido)methyl)imidazo[1,2-b]pyridazin-2-yl)(4,4-difluorocyclohexyl)methyl)-1-(2-(difluoromethoxy)ethyl)-1H-pyrazole-4-carboxamide] | 630 | –
49 | O=C(CC1CC(F)(F)C1)NC(CC(F)F)c1cnn2cc([C@@H](NC(=O)c3nonc3C3CC3)C3CCC(F)(F)CC3)nc2c1 (single isomer, unassigned) [Example 400, 4-Cyclopropyl-N—((S)-(7-((R*)-1-(2-(3,3-difluorocyclobutyl)acetamido)-3,3-difluoropropyl)imidazo[1,2-b]pyridazin-2-yl)(4,4-difluorocyclohexyl)methyl)-1,2,5-oxadiazole-3-carboxamide] | 35 | –
1200 | CC(C)Oc1nocc1C(=O)N[C@H](c1cn2ncc([C@H](NC(=O)CCC(F)F)C3CC3)cc2n1)C1CCC(F)(F)CC1 [Example 302, N—((S)-(7-((R)-Cyclopropyl(4,4-difluorobutanamido)methyl)imidazo[1,2-b]pyridazin-2-yl)(4,4-difluorocyclohexyl)methyl)-3-isopropoxyisoxazole-4-carboxamide] | > 20000 | –
